US20110039721A1, “METHOD FOR PREDICTION ABOUT CARCINOGENICITY OF SUBSTANCE IN RODENT” (Chemicals Evaluation and Research Institute, priority 2007, published 2011)

Tests used:
[1] = test system: mRNA expressed from the genes (A) to (D) in rat liver; assay: Behavior of genes (mRNA expression level, oligo-DNA microarray) in rat liver after 28-day oral administration; type: in vivo; details: for Behavior of gene caused by administration of chemical substance, Gene No. 4846 / Behavior of gene caused by administration of chemical substance, Gene No. 2026 / Behavior of gene caused by administration of chemical substance, Gene No. 4218 / Behavior of gene caused by administration of chemical substance, Gene No. 6182 / Behavior of gene caused by administration of chemical substance, Gene No. 5600: gene group (A); for Behavior of gene caused by administration of chemical substance, Gene No. 4846: Unigene No. Rn.144554; for Behavior of gene caused by administration of chemical substance, Gene No. 2026 / Behavior of gene caused by administration of chemical substance, Gene No. 4218: Unigene No. Rn.167075; for Behavior of gene caused by administration of chemical substance, Gene No. 6182: Unigene No. Rn.5834; for Behavior of gene caused by administration of chemical substance, Gene No. 5600: Unigene No. Rn.9836; for Behavior of gene caused by administration of chemical substance, Gene No. 1494 / Behavior of gene caused by administration of chemical substance, Gene No. 2045 / Behavior of gene caused by administration of chemical substance, Gene No. 2203: gene group (B); for Behavior of gene caused by administration of chemical substance, Gene No. 1494: Unigene No. Rn.1430; for Behavior of gene caused by administration of chemical substance, Gene No. 2045: Unigene No. Rn.19329; for Behavior of gene caused by administration of chemical substance, Gene No. 2203: Unigene No. Rn.21240; for Behavior of gene caused by administration of chemical substance, Gene No. 533 / Behavior of gene caused by administration of chemical substance, Gene No. 725 / Behavior of gene caused by administration of chemical substance, Gene No. 1163 / Behavior of gene caused by administration of chemical substance, Gene No. 4973 / Behavior of gene caused by administration of chemical substance, Gene No. 4095 / Behavior of gene caused by administration of chemical substance, Gene No. 1334 / Behavior of gene caused by administration of chemical substance, Gene No. 6620 / Behavior of gene caused by administration of chemical substance, Gene No. 6303 / Behavior of gene caused by administration of chemical substance, Gene No. 5878 / Behavior of gene caused by administration of chemical substance, Gene No. 1131 / Behavior of gene caused by administration of chemical substance, Gene No. 1562 / Behavior of gene caused by administration of chemical substance, Gene No. 1741 / Behavior of gene caused by administration of chemical substance, Gene No. 893 / Behavior of gene caused by administration of chemical substance, Gene No. 6026 / Behavior of gene caused by administration of chemical substance, Gene No. 154 / Behavior of gene caused by administration of chemical substance, Gene No. 1993 / Behavior of gene caused by administration of chemical substance, Gene No. 813 / Behavior of gene caused by administration of chemical substance, Gene No. 2494 / Behavior of gene caused by administration of chemical substance, Gene No. 2546 / Behavior of gene caused by administration of chemical substance, Gene No. 3776 / Behavior of gene caused by administration of chemical substance, Gene No. 3929 / Behavior of gene caused by administration of chemical substance, Gene No. 1119 / Behavior of gene caused by administration of chemical substance, Gene No. 6742 / Behavior of gene caused by administration of chemical substance, Gene No. 5634: gene group (C); for Behavior of gene caused by administration of chemical substance, Gene No. 533: Unigene No. Rn.106184; for Behavior of gene caused by administration of chemical substance, Gene No. 725: Unigene No. Rn.108075; for Behavior of gene caused by administration of chemical substance, Gene No. 1163: Unigene No. Rn.11766; for Behavior of gene caused by administration of chemical substance, Gene No. 4973: Unigene No. Rn.118529; for Behavior of gene caused by administration of chemical substance, Gene No. 4095: Unigene No. Rn.119024; for Behavior of gene caused by administration of chemical substance, Gene No. 1334 / Behavior of gene caused by administration of chemical substance, Gene No. 6620: Unigene No. Rn.120914; for Behavior of gene caused by administration of chemical substance, Gene No. 6303: Unigene No. Rn.123063; for Behavior of gene caused by administration of chemical substance, Gene No. 5878: Unigene No. Rn.143213; for Behavior of gene caused by administration of chemical substance, Gene No. 1131: Unigene No. Rn.144946; for Behavior of gene caused by administration of chemical substance, Gene No. 1562: Unigene No. Rn.14744; for Behavior of gene caused by administration of chemical substance, Gene No. 1741: Unigene No. Rn.1647; for Behavior of gene caused by administration of chemical substance, Gene No. 893: Unigene No. Rn.164817; for Behavior of gene caused by administration of chemical substance, Gene No. 6026: Unigene No. Rn.167685; for Behavior of gene caused by administration of chemical substance, Gene No. 154: Unigene No. Rn.185941; for Behavior of gene caused by administration of chemical substance, Gene No. 1993: Unigene No. Rn.18728; for Behavior of gene caused by administration of chemical substance, Gene No. 813: Unigene No. Rn.201760; for Behavior of gene caused by administration of chemical substance, Gene No. 2494: Unigene No. Rn.23969; for Behavior of gene caused by administration of chemical substance, Gene No. 2546: Unigene No. Rn.24561; for Behavior of gene caused by administration of chemical substance, Gene No. 3776: Unigene No. Rn.43232; for Behavior of gene caused by administration of chemical substance, Gene No. 3929: Unigene No. Rn.4620; for Behavior of gene caused by administration of chemical substance, Gene No. 1119: Unigene No. Rn.9757; for Behavior of gene caused by administration of chemical substance, Gene No. 6742: Unigene No. Rn.9779; for Behavior of gene caused by administration of chemical substance, Gene No. 5634: Unigene No. Rn.9862; for Behavior of gene caused by administration of chemical substance, Gene No. 5726: gene group (D), Unigene No. Rn.9939
Method in brief: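 Rat liver RNA after 28 days of daily gavage dosing (male F344, 5 weeks old, four per group). A change reaching 1.5-fold, or 1/1.5, against solvent control scores as significant; opposite direction versus another carcinogen scores as not significant.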

liver = details: classification of the substance (Cr+/Cr−); cited from earlier work
rodent = details: classification of the substance (C+/C−); cited from earlier work
[2] = classification of the substance (M+/M−); cited from earlier work

## CC1CCC(C(C)C)C(O)C1 (racemic) [TS034, DL-Menthol]
[1]
  Behavior of gene caused by administration of chemical substance, Gene No. 4846: −
  Behavior of gene caused by administration of chemical substance, Gene No. 2026: +
  Behavior of gene caused by administration of chemical substance, Gene No. 4218: −
  Behavior of gene caused by administration of chemical substance, Gene No. 6182: −
  Behavior of gene caused by administration of chemical substance, Gene No. 5600: −
  Behavior of gene caused by administration of chemical substance, Gene No. 1494: +
  Behavior of gene caused by administration of chemical substance, Gene No. 2045: +
  Behavior of gene caused by administration of chemical substance, Gene No. 2203: +
  Behavior of gene caused by administration of chemical substance, Gene No. 533: +
  Behavior of gene caused by administration of chemical substance, Gene No. 725: −
  Behavior of gene caused by administration of chemical substance, Gene No. 1163: −
  Behavior of gene caused by administration of chemical substance, Gene No. 4973: −
  Behavior of gene caused by administration of chemical substance, Gene No. 4095: −
  Behavior of gene caused by administration of chemical substance, Gene No. 1334: −
  Behavior of gene caused by administration of chemical substance, Gene No. 6620: −
  Behavior of gene caused by administration of chemical substance, Gene No. 6303: +
  Behavior of gene caused by administration of chemical substance, Gene No. 5878: −
  Behavior of gene caused by administration of chemical substance, Gene No. 1131: −
  Behavior of gene caused by administration of chemical substance, Gene No. 1562: −
  Behavior of gene caused by administration of chemical substance, Gene No. 1741: −
  Behavior of gene caused by administration of chemical substance, Gene No. 893: −
  Behavior of gene caused by administration of chemical substance, Gene No. 6026: −
  Behavior of gene caused by administration of chemical substance, Gene No. 154: +
  Behavior of gene caused by administration of chemical substance, Gene No. 1993: −
  Behavior of gene caused by administration of chemical substance, Gene No. 813: −
  Behavior of gene caused by administration of chemical substance, Gene No. 2494: −
  Behavior of gene caused by administration of chemical substance, Gene No. 2546: −
  Behavior of gene caused by administration of chemical substance, Gene No. 3776: −
  Behavior of gene caused by administration of chemical substance, Gene No. 3929: −
  Behavior of gene caused by administration of chemical substance, Gene No. 1119: −
  Behavior of gene caused by administration of chemical substance, Gene No. 6742: −
  Behavior of gene caused by administration of chemical substance, Gene No. 5634: −
  Behavior of gene caused by administration of chemical substance, Gene No. 5726: −
liver
  Liver carcinogenicity: Cr−
rodent
  Carcinogenicity: C−
[2]
  Mutagenicity by Ames test: M−

## COc1ccc(O)c(C(C)(C)C)c1 [TS023, Butylated hydroxyanisole]
[1]; mRNA vs vehicle control group
  Behavior of gene caused by administration of chemical substance, Gene No. 4846: −
  Behavior of gene caused by administration of chemical substance, Gene No. 2026: −
  Behavior of gene caused by administration of chemical substance, Gene No. 4218: −
  Behavior of gene caused by administration of chemical substance, Gene No. 6182: −
  Behavior of gene caused by administration of chemical substance, Gene No. 5600: −
  Behavior of gene caused by administration of chemical substance, Gene No. 1494: −
  Behavior of gene caused by administration of chemical substance, Gene No. 2045: −
  Behavior of gene caused by administration of chemical substance, Gene No. 2203: +
  Behavior of gene caused by administration of chemical substance, Gene No. 533: −
  Behavior of gene caused by administration of chemical substance, Gene No. 725: +
  Behavior of gene caused by administration of chemical substance, Gene No. 1163: +
  Behavior of gene caused by administration of chemical substance, Gene No. 4973: +
  Behavior of gene caused by administration of chemical substance, Gene No. 4095: +
  Behavior of gene caused by administration of chemical substance, Gene No. 1334: −
  Behavior of gene caused by administration of chemical substance, Gene No. 6620: −
  Behavior of gene caused by administration of chemical substance, Gene No. 6303: −
  Behavior of gene caused by administration of chemical substance, Gene No. 5878: −
  Behavior of gene caused by administration of chemical substance, Gene No. 1131: −
  Behavior of gene caused by administration of chemical substance, Gene No. 1562: −
  Behavior of gene caused by administration of chemical substance, Gene No. 1741: −
  Behavior of gene caused by administration of chemical substance, Gene No. 893: −
  Behavior of gene caused by administration of chemical substance, Gene No. 6026: −
  Behavior of gene caused by administration of chemical substance, Gene No. 154: +
  Behavior of gene caused by administration of chemical substance, Gene No. 1993: −
  Behavior of gene caused by administration of chemical substance, Gene No. 813: −
  Behavior of gene caused by administration of chemical substance, Gene No. 2494: −
  Behavior of gene caused by administration of chemical substance, Gene No. 2546: −
  Behavior of gene caused by administration of chemical substance, Gene No. 3776: −
  Behavior of gene caused by administration of chemical substance, Gene No. 3929: −
  Behavior of gene caused by administration of chemical substance, Gene No. 1119: −
  Behavior of gene caused by administration of chemical substance, Gene No. 6742: −
  Behavior of gene caused by administration of chemical substance, Gene No. 5634: −
  Behavior of gene caused by administration of chemical substance, Gene No. 5726: −
liver
  Liver carcinogenicity: Cr−
rodent
  Carcinogenicity: C+
[2]
  Mutagenicity by Ames test: M−
